Reference: patent publication US20260297042A1, “BIARYLAMIDE DERIVATIVES AND THEIR USE AS PKMYT1 INHIBITORS” (CANCER RESEARCH TECHNOLOGY LIMITED, priority 2023, published 2026)

How the values were obtained:
Human PKMYT1 = target: T1, Human PKMYT1 (Homo sapiens, UniProt Q99640); assay: PKMYT1 biochemical ADP-Glo enzymatic assay; conditions: ADP-Glo; 15 nM PKMYT1 kinase domain, 500 µM ATP, 60 minutes at 26° C.; banded
T1 construct: Human PKMYT1 75-362 was cloned as a TEV cleavable 6xHis fusion; 6xHis (TEV cleavable) (cleaved yes); made in house; host or cells: bacterial cells
T1 sequence (Q99640 75-362): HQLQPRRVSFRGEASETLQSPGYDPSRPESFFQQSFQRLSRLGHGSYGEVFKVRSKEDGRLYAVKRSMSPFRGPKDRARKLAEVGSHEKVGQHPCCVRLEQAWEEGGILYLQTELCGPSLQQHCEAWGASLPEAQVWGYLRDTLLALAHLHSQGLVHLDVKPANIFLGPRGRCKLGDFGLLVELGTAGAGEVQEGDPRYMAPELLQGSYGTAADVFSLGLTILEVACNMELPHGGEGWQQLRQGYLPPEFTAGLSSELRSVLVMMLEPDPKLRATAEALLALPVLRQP
In short: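 Measures inhibition of PKMYT1 autonomous ATP hydrolysis: bacterially expressed human enzyme (75-362, tag cleaved) at 15 nM with 500 µM ATP for 60 min at 26 °C, then ADP-Glo Max detection. IC50s accepted only when replicates agreed within 3-fold and curve r2 exceeded 0.9.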

WEE1 = target: T2, WEE1 (Homo sapiens, UniProt P30291); assay: Selectivity versus WEE1 assay (ADP-Glo enzymatic assay); assay type: biochemical; conditions: banded; for IC50: ADP-Glo, 15 nM WEE1, 60 minutes at 26° C.; for PKMYT1 vs. WEE1 selectivity: fold difference in selectivity for PKMYT1 over WEE1, ">N" = at least in this band but could be higher
T2 construct: purchased Thermo Fisher PR7373A
In short: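 Same format as the PKMYT1 assay: WEE1 at 15 nM final with 30 µM ATP, 60 min at 26° C, ADP-Glo luminescence detection, IC50 by dose-response fitting.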

T2 sequence (P30291 whole entry): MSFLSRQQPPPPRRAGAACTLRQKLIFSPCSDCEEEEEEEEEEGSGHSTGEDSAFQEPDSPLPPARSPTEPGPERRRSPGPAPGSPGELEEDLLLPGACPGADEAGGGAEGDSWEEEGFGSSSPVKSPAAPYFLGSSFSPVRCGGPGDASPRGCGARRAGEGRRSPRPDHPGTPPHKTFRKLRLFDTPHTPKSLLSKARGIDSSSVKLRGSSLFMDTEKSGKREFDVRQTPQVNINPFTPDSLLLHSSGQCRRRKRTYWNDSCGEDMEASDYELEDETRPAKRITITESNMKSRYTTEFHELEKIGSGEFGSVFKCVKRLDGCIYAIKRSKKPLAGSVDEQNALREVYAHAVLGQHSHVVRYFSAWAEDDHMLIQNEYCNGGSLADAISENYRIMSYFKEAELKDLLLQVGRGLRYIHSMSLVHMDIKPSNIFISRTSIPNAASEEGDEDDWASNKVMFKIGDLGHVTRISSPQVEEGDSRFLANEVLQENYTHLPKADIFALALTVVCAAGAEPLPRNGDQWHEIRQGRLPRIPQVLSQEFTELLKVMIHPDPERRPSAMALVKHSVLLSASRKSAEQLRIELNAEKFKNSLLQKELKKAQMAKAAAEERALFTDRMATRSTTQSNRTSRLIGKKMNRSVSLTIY

| Compound | IC50 (Human PKMYT1) | IC50 (WEE1) | PKMYT1 vs. WEE1 selectivity (WEE1) |
| --- | --- | --- | --- |
| Cc1ccc(O)c(C)c1NC(=O)c1cnc(NCC2CCN(C(=O)CC(C)(C)C)CC2)s1 [BAA-212, 2-[[1-(3,3-Dimethylbutanoyl)-4-piperidyl]methylamino]-N-(3-hydroxy-2,6-dimethyl-phenyl)thiazole-5-carboxamide] | 50 to 1000 nM | > 11000 nM | >X (100-<1000 fold) |
| COc1ccc(CC(=O)N2CCC(CNc3ncc(C(=O)Nc4c(C)ccc(O)c4C)s3)CC2)cc1 [BAA-213, N-(3-Hydroxy-2.6-dimethyl-phenyl)-2-[[1-[2-(4-methoxyphenyl)acetyl]-4-piperidyl]methylamino]thiazole-5-carboxamide] | 50 to 1000 nM | > 11000 nM | >X (100-<1000 fold) |
| Cc1ccc(O)c(C)c1NC(=O)c1cnc(NCC2CCN(C(=O)Cc3ccc(Cl)cc3)CC2)s1 [BAA-214, 2-[[1-[2-(4-chlorophenyl)acetyl]-4-piperidyl]methylamino]-N-(3-hydroxy-2,6-dimethyl-phenyl)thiazole-5-carboxamide] | 50 to 1000 nM | > 11000 nM | >X (100-<1000 fold) |
| Cc1ccc(O)c(C)c1NC(=O)c1cnc(NCC2CCN(C(=O)CC(C)(C)O)CC2)s1 [BAA-215, N-(3-hydroxy-2,6-dimethyl-phenyl)-2-[[1-(3-hydroxy-3-methyl-butanoyl)-4-piperidyl]methylamino]thiazole-5-carboxamide] | 50 to 1000 nM | > 11000 nM | >X (100-<1000 fold) |
| Cc1ccc(O)c(C)c1NC(=O)c1cnc(NCCCN2CCN(C)CC2)s1 [BAA-218, N-(3-Hydroxy-2,6-dimethyl-phenyl)-2-[3-(4-methylpiperazin-1-yl)propylamino]thiazole-5-carboxamide] | 1000 to 11000 nM | > 11000 nM | W (10-<100 fold) |
| Cc1ccc(O)c(C)c1NC(=O)c1sc(Nc2ccn(C)n2)nc1N [BAA-219, 4-Amino-N-(3-hydroxy-2,6-dimethyl-phenyl)-2-[(1-methylpyrazol-3-yl)amino]thiazole-5-carboxamide] | 1000 to 11000 nM | 1000 to 11000 nM | V (3-<10 fold) |
| CNc1ncc(C(=O)Nc2c(C)ccc(O)c2C)s1 [BAA-221, N-(3-Hydroxy-2,6-dimethyl-phenyl)-2-(methylamino)thiazole-5-carboxamide] | 50 to 1000 nM | > 11000 nM | X (100-<1000 fold) |
| Cc1ccc(O)c(C)c1NC(=O)c1cnc(Nc2cc(C)n(CCC(N)=O)n2)s1 [BAA-239, 2-((1-(3-amino-3-oxopropyl)-5-methyl-1H-pyrazol-3-yl)amino)-N-(3-hydroxy-2,6-dimethylphenyl)thiazole-5-carboxamide] | 50 to 1000 nM | 1000 to 11000 nM | W (10-<100 fold) |
| Cc1cc(Nc2ncc(C(=O)Nc3c(C)ccc(O)c3C)s2)n(CCC(N)=O)n1 [BAA-240, 2-((1-(3-amino-3-oxopropyl)-3-methyl-1H-pyrazol-5-yl)amino)-N-(3-hydroxy-2,6-dimethylphenyl) thiazole-5-carboxamide] | 50 to 1000 nM | > 11000 nM | X (100-<1000 fold) |

Now from value to molecule:

| IC50 (Human PKMYT1) | IC50 (WEE1) | PKMYT1 vs. WEE1 selectivity (WEE1) | Compound |
| --- | --- | --- | --- |
| < 50 nM | > 11000 nM | Y (1000-5000 fold) | Cc1ccc(O)c(C)c1NC(=O)c1cnc(Nc2cc(C)n(CC(=O)N3CCCC3)n2)s1 [BAA-203] |
| < 50 nM | > 11000 nM | Z (>5000 fold) | CCN(CC)C(=O)Cn1nc(Nc2ncc(C(=O)Nc3c(C)ccc(O)c3C)s2)cc1C [BAA-204, 2-[[1-[2-(diethylamino)-2-oxo-ethyl]-5-methyl-pyrazol-3-yl]amino]-N-(3-hydroxy-2,6-dimethyl-phenyl)thiazole-5-carboxamide] |
| < 50 nM | > 11000 nM | Y (1000-5000 fold) | Cc1cn(CC(=O)N2CCN(C)CC2)nc1Nc1ncc(C(=O)Nc2c(C)ccc(O)c2C)s1 [BAA-205, N-(3-hydroxy-2,6-dimethyl-phenyl)-2-[[4-methyl-1-[2-(4-methylpiperazin-1-yl)-2-oxo-ethyl]pyrazol-3-yl]amino]thiazole-5-carboxamide] |
| < 50 nM | > 11000 nM | Z (>5000 fold) | Cc1ccc(O)c(C)c1NC(=O)c1cnc(Nc2nn(C)c3cccnc23)s1 [BAA-210, N-(3-Hydroxy-2,6-dimethyl-phenyl)-2-[(1-methylpyrazolo[4,3-b]pyridin-3-yl)amino]thiazole-5-carboxamide] |
| < 50 nM | > 11000 nM | X (100-<1000 fold) | Cc1ccc(O)c(C)c1NC(=O)c1cnc(Nc2ccn(CC(=O)N3CCNCC3)n2)s1 [BAA-222, N-(3-hydroxy-2,6-dimethylphenyl)-2-((1-(2-oxo-2-(piperazin-1-yl)ethyl)-1H-pyrazol-3-yl)amino)thiazole-5-carboxamide] |
| < 50 nM | > 11000 nM | X (100-<1000 fold) | Cc1ccc(O)c(C)c1NC(=O)c1cnc(Nc2ccn(CC(=O)N3C[C@H]4C[C@@H]3CN4)n2)s1 [BAA-223, 2-((1-(2-((1R,4R)-2,5-diazabicyclo[2.2.1]heptan-2-yl)-2-oxoethyl)-1H-pyrazol-3-yl)amino)-N-(3-hydroxy-2,6-dimethylphenyl)thiazole-5-carboxamide] |
| < 50 nM | > 11000 nM | X (100-<1000 fold) | Cc1ccc(O)c(C)c1NC(=O)c1cnc(Nc2ccn(CC(=O)N3CCC4(CCNC4)CC3)n2)s1 [BAA-225, N-(3-hydroxy-2,6-dimethylphenyl)-2-((1-(2-oxo-2-(2,8-diazaspiro[4.5]decan-8-yl)ethyl)-1H-pyrazol-3-yl)amino)thiazole-5-carboxamide] |
| < 50 nM | > 11000 nM | X (100-<1000 fold) | Cc1ccc(O)c(C)c1NC(=O)c1cnc(Nc2ccn(CC(=O)NCC3CCNCC3)n2)s1 [BAA-226] |
| < 50 nM | > 11000 nM | X (100-<1000 fold) | Cc1ccc(O)c(C)c1NC(=O)c1cnc(Nc2ccn(CC(=O)N3C[C@@H](C)N[C@@H](C)C3)n2)s1 [BAA-227, 2-((1-(2-((3R,5S)-3,5-dimethylpiperazin-1-yl)-2-oxoethyl)-1H-pyrazol-3-yl)amino)-N-(3-hydroxy-2,6-dimethylphenyl)thiazole-5-carboxamide] |
| < 50 nM | > 11000 nM | X (100-<1000 fold) | Cc1ccc(O)c(C)c1NC(=O)c1cnc(Nc2ccn(CC(=O)NCCN3CCNCC3)n2)s1 [BAA-228, N-(3-hydroxy-2,6-dimethylphenyl)-2-((1-(2-oxo-2-((2-(piperazin-1-yl)ethyl)amino)ethyl)-1H-pyrazol-3-yl)amino)thiazole-5-carboxamide] |
| < 50 nM | 1000 to 11000 nM | X (100-<1000 fold) | CCN(C(=O)C(C)(C)C)c1ccc(C)c(Nc2ncc(C(=O)Nc3c(C)ccc(O)c3C)s2)n1 [BAA-234, 2-((6-(N-ethylpivalamido)-3-methylpyridin-2-yl)amino)-N-(3-hydroxy-2,6-dimethylphenyl) thiazole-5-carboxamide] |
| < 50 nM | > 11000 nM | Y (1000-5000 fold) | Cc1cc(Nc2ncc(C(=O)Nc3c(C)ccc(O)c3C)s2)n(CC(C)C)n1 [BAA-238, N-(3-hydroxy-2,6-dimethylphenyl)-2-((1-isobutyl-3-methyl-1H-pyrazol-5-yl)amino)thiazole-5-carboxamide] |
